Results taken from ChEMBL document CHEMBL4417621, “Methods to identify tas2r modulators” (2013).

Columns and labels:
Assay type in all cases: functional, cell-based
[1] = biological target: T1, Taste receptor type 2 member 1 (Homo sapiens) (UniProt Q9NYW7); experiment: Activation of full-length human TAS2R1 expressed in HEK293T/Galpha16-gustducin 44 cells assessed as effect on calcium flux by measuring deltaF/F0 ratio at 6.25 mM by Fluo-4 dye based FLIPR assay
T1 sequence (whole entry): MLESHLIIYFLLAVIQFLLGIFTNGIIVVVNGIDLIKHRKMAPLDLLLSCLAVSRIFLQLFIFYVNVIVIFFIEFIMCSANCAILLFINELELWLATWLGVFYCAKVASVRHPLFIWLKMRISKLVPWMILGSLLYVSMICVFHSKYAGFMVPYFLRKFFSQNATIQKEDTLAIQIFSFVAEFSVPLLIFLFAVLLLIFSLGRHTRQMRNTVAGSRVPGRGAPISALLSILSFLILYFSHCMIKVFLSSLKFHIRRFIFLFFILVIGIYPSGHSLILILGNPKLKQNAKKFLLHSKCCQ

[2] = biological target: T2, Taste receptor type 2 member 10 (Homo sapiens) (UniProt Q9NYW0); experiment: Activation of full-length human TAS2R10 expressed in HEK293T/Galpha16-gustducin 44 cells assessed as effect on calcium flux by measuring deltaF/F0 ratio at 6.25 mM by Fluo-4 dye based FLIPR assay
T2 sequence (whole entry): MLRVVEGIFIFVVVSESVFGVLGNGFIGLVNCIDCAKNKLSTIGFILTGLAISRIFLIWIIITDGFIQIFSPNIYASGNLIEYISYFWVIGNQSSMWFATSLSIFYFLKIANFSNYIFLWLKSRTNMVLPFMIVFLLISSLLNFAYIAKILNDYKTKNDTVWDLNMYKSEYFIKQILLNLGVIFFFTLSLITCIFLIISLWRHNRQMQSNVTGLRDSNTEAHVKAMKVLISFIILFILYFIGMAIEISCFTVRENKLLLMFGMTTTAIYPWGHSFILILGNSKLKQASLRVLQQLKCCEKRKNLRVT

[3] = biological target: T1, Taste receptor type 2 member 1 (Homo sapiens); experiment: Activation of full-length human TAS2R1 expressed in HEK293T/Galpha16-gustducin 44 cells assessed as effect on calcium flux by measuring deltaF/F0 ratio at 1.5625 mM by Fluo-4 dye based FLIPR assay
[4] = biological target: T1, Taste receptor type 2 member 1 (Homo sapiens); experiment: Activation of full-length human TAS2R1 expressed in HEK293T/Galpha16-gustducin 44 cells assessed as effect on calcium flux by measuring deltaF/F0 ratio at 50 mM by Fluo-4 dye based FLIPR assay
[5] = biological target: T3, Taste receptor type 2 member 31 (Homo sapiens) (UniProt P59538); experiment: Activation of full-length human TAS2R44 expressed in HEK293T/Galpha16-gustducin 44 cells assessed as effect on calcium flux by measuring deltaF/F0 ratio at 6.25 mM by Fluo-4 dye based FLIPR assay (reference value: 0.017 +/ - 0.009)
T3 sequence (whole entry): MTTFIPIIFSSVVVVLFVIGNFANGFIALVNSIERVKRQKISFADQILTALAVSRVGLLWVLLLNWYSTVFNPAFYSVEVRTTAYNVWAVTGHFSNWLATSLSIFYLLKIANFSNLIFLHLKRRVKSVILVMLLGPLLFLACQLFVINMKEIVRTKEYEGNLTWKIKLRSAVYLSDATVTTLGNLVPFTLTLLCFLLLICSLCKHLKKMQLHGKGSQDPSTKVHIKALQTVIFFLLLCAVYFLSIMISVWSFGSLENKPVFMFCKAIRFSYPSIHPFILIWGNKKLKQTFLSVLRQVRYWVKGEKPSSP

[6] = biological target: T4, Taste receptor type 2 member 46 (Homo sapiens) (UniProt P59540); experiment: Activation of full-length human TAS2R46 expressed in HEK293T/Galpha16-gustducin 44 cells assessed as effect on calcium flux by measuring deltaF/F0 ratio at 3.125 mM by Fluo-4 dye based FLIPR assay
T4 sequence (whole entry): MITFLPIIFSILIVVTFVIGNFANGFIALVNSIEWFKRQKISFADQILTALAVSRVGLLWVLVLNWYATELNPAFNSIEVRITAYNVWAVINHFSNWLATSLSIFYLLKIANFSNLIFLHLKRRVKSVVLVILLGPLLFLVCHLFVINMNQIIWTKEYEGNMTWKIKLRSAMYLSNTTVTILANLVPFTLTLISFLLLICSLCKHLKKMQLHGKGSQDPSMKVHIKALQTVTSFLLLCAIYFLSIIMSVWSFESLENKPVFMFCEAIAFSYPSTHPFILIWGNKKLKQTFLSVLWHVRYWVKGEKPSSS

[7] = biological target: T2, Taste receptor type 2 member 10 (Homo sapiens); experiment: Activation of full-length human TAS2R10 expressed in HEK293T/Galpha16-gustducin 44 cells assessed as effect on calcium flux by measuring deltaF/F0 ratio at 50 mM by Fluo-4 dye based FLIPR assay
[8] = biological target: T2, Taste receptor type 2 member 10 (Homo sapiens); experiment: Activation of full-length human TAS2R10 expressed in HEK293T/Galpha16-gustducin 44 cells assessed as effect on calcium flux by measuring deltaF/F0 ratio by Fluo-4 dye based FLIPR assay
[9] = biological target: T5, Taste receptor type 2 member 31 (Homo sapiens, UniProt P59538); experiment: Agonist activity at full-length human TAS2R44 expressed in HEK293T/Galpha16-gustducin 44 cells assessed as effect on calcium flux by measuring deltaF/F0 ratio by Fluo-4 dye based FLIPR assay
T5 sequence (P59538 whole entry): T3 sequence (whole entry)

Ratio [1]: 0.061
Ratio [2]: 0.053
Ratio [3]: 0.047
Ratio [4]: 0.197
Ratio [5]: 0.059
Ratio [6]: 0.036
Ratio [7]: 0.212
Activity [8]: Dose-dependent effect
EC50 [9]: 16.7 mM
SMILES: OC[C@H]1O[C@H](O[C@]2(CCl)O[C@H](CCl)[C@@H](O)[C@@H]2O)[C@H](O)[C@@H](O)[C@H]1Cl [SUCRALOSE]
